The results in this text go back to patent US5869476A, “Pyrimidinone derivatives” (Boryung Pharmaceutical Co., Ltd., priority 1994, dated 1999).

This assay has as its target T1, angiotensin II receptor (Oryctolagus cuniculus, UniProt P34976).
T1 construct: The aorta was cut into 3~4 mm to form ring samples; from tissue; host or cells: isolated aorta rings of New Zealand White rabbits
T1 sequence (P34976 1-359): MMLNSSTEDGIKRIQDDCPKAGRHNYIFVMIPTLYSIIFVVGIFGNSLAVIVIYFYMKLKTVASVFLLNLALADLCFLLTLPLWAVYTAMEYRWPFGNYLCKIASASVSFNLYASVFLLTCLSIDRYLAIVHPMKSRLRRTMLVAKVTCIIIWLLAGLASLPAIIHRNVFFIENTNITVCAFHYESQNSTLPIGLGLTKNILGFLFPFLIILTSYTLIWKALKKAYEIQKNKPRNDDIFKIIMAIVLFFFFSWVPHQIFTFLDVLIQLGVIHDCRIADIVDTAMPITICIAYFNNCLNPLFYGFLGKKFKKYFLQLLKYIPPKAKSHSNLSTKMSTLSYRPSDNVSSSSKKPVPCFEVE
The assay is described as follows: inhibition of angiotensin II induced contraction of isolated rabbit aorta rings. The assay is classed as cell-based, New Zealand White rabbit. Particulars: test compound incubated 20 minutes, 37° C., pH 7.4, read-out: IC50 (concentration being required to inhibit angiotensin II induced contraction by 50%). In outline: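 Rabbit aortic rings in Krebs-Henseleit, 37 °C, pH 7.4, 2 g tension, contracted with Angiotensin II […] three times, the third serving as control. Compound incubated 20 min before rechallenge; IC50 is concentration inhibiting Angiotensin II contraction by 50%.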
Consider `CCCCc1nc(C)c(CCC(=O)NCc2ccccc2)c(=O)n1Cc1ccc(-c2ccccc2-c2nnn[nH]2)cc1` [Compound 28, 2-n-butyl-5-(2'-benzylaminocarbonylethyl)-6-methyl-3-[[2'-(1H-tetrazol-5-yl)biphenyl-4-yl]methyl]-pyrimidin-4-(3H)-one], for which the IC50 was determined as 92.3 nM.
`CCCc1nc(C)c(CC(=O)O)c(=O)n1Cc1ccc(-c2ccccc2-c2nnn[nH]2)cc1` [Compound 10, 2-n-propyl-5-carboxymethyl-6-methyl-3-[[2'-(1H-tetrazol-5-yl)-biphenyl-4-yl]methyl]-pyrimidin-4-(3H)-one]: the IC50 was 37.1 nM.
With `CCCCc1nc(C)c(CC(=O)N2CCCCC2C(=O)OCC)c(=O)n1Cc1ccc(-c2ccccc2-c2nn[nH]n2)cc1` (centres unmarked) [Compound 53, 2-n-butyl-5-(2'-ethoxycarbonylpiperidinocarbonylmethyl)-6-methyl-3-[[2'-(1H-tetrazol-5-yl)biphenyl-4-yl]methyl]-pyrimidin-4-(3H)-one], the IC50 was found to be 6.24 nM.
With `CCCCc1nc(C)c(CC(=O)N2CCCC(C(=O)OCC)C2)c(=O)n1Cc1ccc(-c2ccccc2-c2nn[nH]n2)cc1` (centres unmarked) [Compound 52, 2-n-butyl-5-(3'-ethoxycarbonylpiperidinocarbonylmethyl)-6-methyl-3-[[2'-(1H-tetrazol-5-yl)biphenyl-4-yl]methyl]-pyrimidin-4-(3H)-one], the IC50 was determined as 3.56 nM.
For the molecule `CCCCc1nc(C)c(CCCC(=O)O)c(=O)n1Cc1ccc(-c2ccccc2-c2nnn[nH]2)cc1` [Compound 30, 2-n-butyl-5-(3'-carboxypropyl)-6-methyl-3-[[2'-(1H-tetrazol-5-yl)biphenyl-4-yl]methyl]-pyrimidin-4-(3H)-one], the IC50 turned out to be 7.26 nM.
For `CCCCc1nc(C)c(CCC(=O)N2CCCC(C(=O)N(CC)CC)C2)c(=O)n1Cc1ccc(-c2ccccc2-c2nn[nH]n2)cc1` (centres unmarked) [Compound 69, 2-n-butyl-5-[2'-(3"-diethylaminocarbonylpiperidino)carbonylethyl]-6-methyl-3-[[2'-(1H-tetrazol-5-yl)biphenyl-4-yl]methyl]-pyrimidin-4-(3H)-one], the IC50 turned out to be 10.7 nM.
Then `CCCCc1nc(C)c(CCC(=O)N2CCCCCC2)c(=O)n1Cc1ccc(-c2ccccc2-c2nn[nH]n2)cc1` [Compound 70, 2-n-butyl-5-(2'-hexamethyleneiminocarbonylethyl)-6-methyl-3-[[2'-(1H-tetrazol-5-yl)biphenyl-4-yl]methyl]-pyrimidin-4-(3H)-one], with 11.6 nM; and `CCCc1nc(C)c(CCC(=O)OCC)c(=O)n1Cc1ccc(-c2ccccc2-c2nn[nH]n2)cc1` [Compound 13, 2-n-propyl-5-(2'-ethoxycarbonylethyl)-6-methyl-3-[[2'-(1H-tetrazol-5-yl)biphenyl-4-yl]methyl]-pyrimidin-4-(3H)-one], with 4.99 nM.
